Source: publication PMC12518639, “Apomorphine is a novel necroptosis inhibitor targeting mixed lineage kinase domain-like protein oligomerization” (Cell Death Discovery, 2025)

Legend:
Wt-hMLKL = target: T1, Wt-hMLKL (Homo sapiens, UniProt Q8NB16); test: SPR binding to Wt-hMLKL; details: for Kd: SPR, CM5 chip, 25 °C
T1 construct: purchased Abcam ab241453
T1 sequence (Q8NB16 1-471): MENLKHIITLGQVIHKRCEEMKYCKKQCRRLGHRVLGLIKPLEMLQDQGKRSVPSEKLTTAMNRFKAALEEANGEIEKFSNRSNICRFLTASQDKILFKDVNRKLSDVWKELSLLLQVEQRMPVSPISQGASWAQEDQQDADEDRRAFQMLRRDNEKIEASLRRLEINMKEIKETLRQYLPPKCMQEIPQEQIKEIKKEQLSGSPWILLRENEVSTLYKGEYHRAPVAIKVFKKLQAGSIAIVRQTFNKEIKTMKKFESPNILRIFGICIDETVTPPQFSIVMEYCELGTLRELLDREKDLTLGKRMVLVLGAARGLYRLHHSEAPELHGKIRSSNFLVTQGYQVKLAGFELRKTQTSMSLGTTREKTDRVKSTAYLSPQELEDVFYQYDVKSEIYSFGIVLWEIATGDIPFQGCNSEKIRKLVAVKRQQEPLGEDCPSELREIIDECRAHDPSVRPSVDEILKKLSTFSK
Description: (§1) The hMLKL plasmid (RC213152, OriGene, Rockville, MD, USA), and recombinant Wt-hMLKL (ab241453, Abcam) and Wt-mMLKL (MBS1379843, MyBioSource, San Diego, CA, USA) proteins were purchased. Nt-hMLKL (2–154), Nt-mMLKL (1–180), and Ct-hMLKL (183–471) were generated using the pBT7-N-His vector. Nt-hMLKL^C86A, Nt-hMLKL^F148A, -hMLKL^C86A/L89A/D94A, and Nt-hMLKL^R145A/R146A/F148A/M150A were generated using the Site-directed Mutagenesis Kit (EZ004S, Enzynomics, S. Korea). These constructs were subcloned into pBT7-N-His and pET-15b plasmid vectors. E. coli BL21 cells transformed with the cloned expression vectors were cultured in LB medium and supplemented with 100 μg/mL ampicillin until an OD at 600 nm of 0.5–0.6 was reached. The cultures were induced by 1 mM IPTG (367-93-1, Sigma-Aldrich). The cells were lysed and centrifuged. The clear supernatants were subjected to Ni-NTA affinity chromatography (175018169, QIAGEN, Hilden, Germany). Plasmids encoding mMLKL (1–464)–gyrase fusion constructs were kindly provided by Prof. James Murphy (Cell Signalling and Cell Death Division, The Walter and Eliza Hall Institute of Medical Research, Parkville, Victoria 3052, Australia).
(§2) The interactions of Wt-hMLKL, Wt-mMLKL, Nt-mMLKL, Nt, and Ct-hMLKL proteins with Re-APO or Ox-APO were detected through SPR analysis using Biacore™ T200 (Cytiva, Marlborough, MA, USA). Each MLKL protein was immobilized on a CM5 sensor chip. To derive the Rligand values, coupling processes were performed based on the molecular weights of the MLKL protein (MW ligand) and Re-APO or Ox-APO (MW analyte). Re-APO or Ox-APO was injected into an HBS buffer (10 mM HEPES, 150 mM NaCl, 3.4 mM EDTA, and 0.005% Tween 20, pH 7.4) at 25 °C (10 μL/min flow rate). Sensorgrams were recorded and analyzed in real-time using the control software in the BIAcore T200 system. All data were analyzed using the BIA evaluation software (Cytiva).

[1] = system: APAP-induced liver injury in BALB/c mice; test: APAP-induced liver injury model; type: in vivo, mouse; details: 15 mg/kg once, APAP i.p., 24 h; for Necrotic area of liver tissue (H&E): n=3
Method: For APAP-induced liver injury, male BALB/c mice aged 6–8 weeks (Central Lab Animal Inc., S. Korea) and male MLKL^–/– C57BL/6 mice aged 6–8 weeks (Cyagen, Santa Clara, CA, USA) were administered acetaminophen (APAP; 400–500 mg/kg, 103-90-2, Sigma-Aldrich) by i.p. injection to induce liver injury in the presence or absence of APO after 12 h of fasting. After 24 h, the mice were sacrificed to obtain liver tissues for further analysis.
For liver tissue preparation, each liver was perfused with DPBS and then fixed in 4% paraformaldehyde (PFA; PC2031-050-00, Biosesang, S. Korea) before embedding in paraffin. Sections were stained with H&E, and necrotic areas were quantified using ImageJ by calculating the proportion of pale or unstained regions relative to the total tissue area. Mouse liver sections were subjected to IHC staining to assess distinct forms of cell death: an anti-p-MLKL antibody (MA5-32752, Thermo Fisher Scientific) to evaluate p-MLKL localization (necroptosis), a TUNEL assay kit (4810-30-K, R&D Systems) for apoptosis, and an anti-4-HNE antibody (GTX01087, GeneTex) for ferroptosis.

Nt-hMLKL (2–154) = target: T2, Nt-hMLKL (2–154) (Homo sapiens, UniProt Q8NB16); test: SPR binding to Nt-hMLKL; details: for Kd: SPR, CM5 chip, 25 °C
T2 construct: Nt-hMLKL (2–154), Nt-mMLKL (1–180), and Ct-hMLKL (183–471) were generated using the pBT7-N-His vector; His (N); made in house; host or cells: E. coli BL21
T2 sequence (Q8NB16 2-154): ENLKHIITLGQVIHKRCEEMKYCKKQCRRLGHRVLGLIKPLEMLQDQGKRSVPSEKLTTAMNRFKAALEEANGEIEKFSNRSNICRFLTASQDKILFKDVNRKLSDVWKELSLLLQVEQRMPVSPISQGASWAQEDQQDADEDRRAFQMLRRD
Description: as §1, §2

Wt-mMLKL = target: T3, Wt-mMLKL (Mus musculus, UniProt Q9D2Y4); test: SPR binding to Wt-mMLKL; details: CM5 chip, 25 °C
T3 construct: purchased MyBioSource MBS1379843
T3 sequence (Q9D2Y4 whole entry): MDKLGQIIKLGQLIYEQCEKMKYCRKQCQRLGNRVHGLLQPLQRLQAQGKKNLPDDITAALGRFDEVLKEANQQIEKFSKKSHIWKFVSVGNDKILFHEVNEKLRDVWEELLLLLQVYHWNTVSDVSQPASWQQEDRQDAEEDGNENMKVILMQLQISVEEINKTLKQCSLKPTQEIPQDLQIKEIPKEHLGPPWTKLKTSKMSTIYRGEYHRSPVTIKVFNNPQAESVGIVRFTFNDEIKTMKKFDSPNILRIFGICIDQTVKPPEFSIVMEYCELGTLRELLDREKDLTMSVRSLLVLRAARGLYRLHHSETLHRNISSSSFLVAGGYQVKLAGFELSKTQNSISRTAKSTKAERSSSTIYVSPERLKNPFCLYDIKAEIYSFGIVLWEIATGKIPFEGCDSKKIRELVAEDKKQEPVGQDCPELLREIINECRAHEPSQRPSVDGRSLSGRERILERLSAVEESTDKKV
Description: as §1, with “James Murphy (Cell Signalling and Cell Death Division, The Walter and Eliza Hall Institute of Medical Research, Parkville, Victoria 3052, Australia).” left out
The interactions of Wt-hMLKL, Wt-mMLKL, Nt-mMLKL, Nt, and Ct-hMLKL proteins with Re-APO or Ox-APO were detected through SPR analysis using Biacore™ T200 (Cytiva, Marlborough, MA, USA). […] Sensorgrams were recorded and analyzed in real-time using the control software in the BIAcore T200 system. All data were analyzed using the BIA evaluation software (Cytiva).

Compound	Kd (Wt-hMLKL) [µM]	fold stronger binding than Re-APO (Wt-hMLKL; from KD values)	Serum ALT and AST levels [1]	membrane p-MLKL in liver (IHC) [1]	Necrotic area of liver tissue (H&E) [1] [%]	Kd (Nt-hMLKL (2–154)) [µM]	fold difference of binding versus Re-APO (Nt-hMLKL (2–154); from KD values) [fold]	Kd (Wt-mMLKL) [µM]
CN1CCc2cccc3c4c(cc1c23)C=CC(=O)C4=O [Ox-APO]	0.005	~ 50 fold	significantly improved	dramatic decrease	1	1.31	~1000	0.000381
CN1CCc2cccc3c2C1Cc1ccc(O)c(O)c1-3 (centres unmarked) [Re-APO]	0.244		significantly improved	dramatic decrease	3	1140		0.0229
